molecular target: Beta-secretase 1 (Homo sapiens, UniProt P56817); test: Inhibition of BACE1 in human SH-SY5Y cells assessed as release of sAPPbeta after 17 hrs; format: cell-based
Sequence (P56817 whole entry): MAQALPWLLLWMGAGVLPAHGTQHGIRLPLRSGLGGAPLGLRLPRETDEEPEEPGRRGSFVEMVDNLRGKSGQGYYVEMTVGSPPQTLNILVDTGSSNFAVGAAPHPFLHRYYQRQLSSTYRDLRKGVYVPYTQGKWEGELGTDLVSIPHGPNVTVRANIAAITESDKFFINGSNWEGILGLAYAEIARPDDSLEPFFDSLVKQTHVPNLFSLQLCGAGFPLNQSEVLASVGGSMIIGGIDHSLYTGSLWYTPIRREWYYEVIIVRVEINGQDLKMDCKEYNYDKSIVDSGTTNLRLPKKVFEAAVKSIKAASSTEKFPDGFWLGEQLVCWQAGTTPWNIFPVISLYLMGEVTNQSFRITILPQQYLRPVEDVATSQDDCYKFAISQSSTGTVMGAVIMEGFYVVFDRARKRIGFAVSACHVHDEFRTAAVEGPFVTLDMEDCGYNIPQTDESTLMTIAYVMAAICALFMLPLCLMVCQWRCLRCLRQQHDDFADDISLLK

SMILES	IC50
CC1(C)Cc2ccc(-c3cncnc3)cc2C12C=C(F)C(N)=N2 (centres undefined)	168 nM
CC#Cc1cncc(-c2ccc3c(c2)C2(C=C(F)C(N)=N2)[C@]2(CC[C@@H](OC)CC2)C3)c1 (some centres undefined)	1.1 nM
CC#Cc1cncc(-c2ccc3c(c2)C2(C=C(F)C(N)=N2)[C@]2(CC[C@H](OC)CC2)C3)c1 (some centres undefined)	0.031 nM
CO[C@H]1CC[C@]2(CC1)Cc1ccc(-c3cncnc3)cc1C21C=C(F)C(N)=N1 (some centres undefined)	1.1 nM
